In this assay the target is HiBit-WIZ fusion protein (Homo sapiens, UniProt O95785+Q96SW2). Briefly: Quantification of WIZ protein levels in HiBit tag fusion protein assay (WIZ HiBit assay in 293T cells). The assay is classed as cell-based. More on the design: Dmax: dose or concentration left out as unconfirmed. The note with it: for Dmax / remaining activity at up to 25 µM: HEK-293T, 293T cells; for Dmax: 100 minus Amax, read-out: % degradation of WIZ (100-Amax); for remaining activity at up to 25 µM: DMSO-normalized, curve-fitted percentage of WIZ-HiBit remaining at 25 uM, read-out: WIZ Amax; for DC50: WIZ HiBit assay in 293T cells, 10-point, 5-fold dose response, highest concentration 25 μM, about 18 hours, read-out: WIZ AC50. In general terms: HiBiT is a short tag that completes a luciferase, so light tracks the accessible tagged protein.

Molecules are shown by their SMILES.

Chain of HiBit-WIZ fusion protein (O95785 whole entry, the tested form may be a part): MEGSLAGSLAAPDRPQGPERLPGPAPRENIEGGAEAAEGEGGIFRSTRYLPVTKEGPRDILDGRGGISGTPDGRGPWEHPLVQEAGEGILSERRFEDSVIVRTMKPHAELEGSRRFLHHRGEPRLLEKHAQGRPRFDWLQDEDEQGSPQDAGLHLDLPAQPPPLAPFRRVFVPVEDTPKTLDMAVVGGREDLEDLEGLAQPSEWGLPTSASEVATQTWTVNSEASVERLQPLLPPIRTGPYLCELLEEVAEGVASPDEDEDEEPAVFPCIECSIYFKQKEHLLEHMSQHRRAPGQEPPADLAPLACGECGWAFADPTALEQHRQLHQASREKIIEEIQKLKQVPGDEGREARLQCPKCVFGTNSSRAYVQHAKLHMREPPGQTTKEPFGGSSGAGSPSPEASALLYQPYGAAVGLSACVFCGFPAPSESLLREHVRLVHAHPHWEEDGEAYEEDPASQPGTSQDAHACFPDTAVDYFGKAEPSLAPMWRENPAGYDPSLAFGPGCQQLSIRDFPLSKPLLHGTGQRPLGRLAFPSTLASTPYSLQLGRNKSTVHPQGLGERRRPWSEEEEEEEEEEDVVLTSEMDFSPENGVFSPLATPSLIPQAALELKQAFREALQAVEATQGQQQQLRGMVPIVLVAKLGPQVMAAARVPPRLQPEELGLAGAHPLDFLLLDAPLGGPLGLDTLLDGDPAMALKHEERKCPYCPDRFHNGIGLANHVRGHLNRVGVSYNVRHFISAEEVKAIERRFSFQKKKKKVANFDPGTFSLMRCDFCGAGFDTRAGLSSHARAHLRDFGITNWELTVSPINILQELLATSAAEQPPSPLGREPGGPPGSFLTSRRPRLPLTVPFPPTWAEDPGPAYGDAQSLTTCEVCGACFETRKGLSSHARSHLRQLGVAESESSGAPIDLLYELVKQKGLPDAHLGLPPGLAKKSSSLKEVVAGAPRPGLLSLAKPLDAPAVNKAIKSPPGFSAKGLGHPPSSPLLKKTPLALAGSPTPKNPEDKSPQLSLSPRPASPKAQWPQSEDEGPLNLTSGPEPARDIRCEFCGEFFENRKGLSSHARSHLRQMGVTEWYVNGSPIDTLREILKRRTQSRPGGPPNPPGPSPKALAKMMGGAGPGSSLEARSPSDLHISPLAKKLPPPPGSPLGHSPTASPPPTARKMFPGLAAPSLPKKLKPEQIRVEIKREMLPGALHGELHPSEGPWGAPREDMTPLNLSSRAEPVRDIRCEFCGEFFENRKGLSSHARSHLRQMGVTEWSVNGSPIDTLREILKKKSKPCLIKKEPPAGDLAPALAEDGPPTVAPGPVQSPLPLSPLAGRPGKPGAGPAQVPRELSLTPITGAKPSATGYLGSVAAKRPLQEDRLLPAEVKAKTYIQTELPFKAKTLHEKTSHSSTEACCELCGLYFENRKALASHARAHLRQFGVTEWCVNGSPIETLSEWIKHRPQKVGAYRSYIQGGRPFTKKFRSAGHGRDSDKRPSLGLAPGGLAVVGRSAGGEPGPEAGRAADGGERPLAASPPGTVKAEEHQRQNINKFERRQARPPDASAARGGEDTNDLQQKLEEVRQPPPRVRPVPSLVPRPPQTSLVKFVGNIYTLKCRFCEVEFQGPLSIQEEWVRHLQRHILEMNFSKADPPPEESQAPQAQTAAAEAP
Chain of HiBit-WIZ fusion protein (Q96SW2 whole entry, the tested form may be a part): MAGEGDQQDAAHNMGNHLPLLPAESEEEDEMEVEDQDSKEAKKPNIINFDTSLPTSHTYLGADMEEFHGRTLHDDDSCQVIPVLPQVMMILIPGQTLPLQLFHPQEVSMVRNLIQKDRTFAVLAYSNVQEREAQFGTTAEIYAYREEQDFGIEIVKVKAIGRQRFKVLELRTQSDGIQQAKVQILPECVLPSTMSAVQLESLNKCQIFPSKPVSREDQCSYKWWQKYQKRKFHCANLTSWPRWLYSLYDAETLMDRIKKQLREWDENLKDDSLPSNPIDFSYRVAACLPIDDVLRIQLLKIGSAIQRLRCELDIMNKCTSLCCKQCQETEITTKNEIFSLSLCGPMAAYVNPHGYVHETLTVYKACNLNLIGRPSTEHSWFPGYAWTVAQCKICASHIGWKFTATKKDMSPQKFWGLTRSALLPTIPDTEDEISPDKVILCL
Chain of HiBit-WIZ fusion protein (Q16531 whole entry partner, the tested form may be a part): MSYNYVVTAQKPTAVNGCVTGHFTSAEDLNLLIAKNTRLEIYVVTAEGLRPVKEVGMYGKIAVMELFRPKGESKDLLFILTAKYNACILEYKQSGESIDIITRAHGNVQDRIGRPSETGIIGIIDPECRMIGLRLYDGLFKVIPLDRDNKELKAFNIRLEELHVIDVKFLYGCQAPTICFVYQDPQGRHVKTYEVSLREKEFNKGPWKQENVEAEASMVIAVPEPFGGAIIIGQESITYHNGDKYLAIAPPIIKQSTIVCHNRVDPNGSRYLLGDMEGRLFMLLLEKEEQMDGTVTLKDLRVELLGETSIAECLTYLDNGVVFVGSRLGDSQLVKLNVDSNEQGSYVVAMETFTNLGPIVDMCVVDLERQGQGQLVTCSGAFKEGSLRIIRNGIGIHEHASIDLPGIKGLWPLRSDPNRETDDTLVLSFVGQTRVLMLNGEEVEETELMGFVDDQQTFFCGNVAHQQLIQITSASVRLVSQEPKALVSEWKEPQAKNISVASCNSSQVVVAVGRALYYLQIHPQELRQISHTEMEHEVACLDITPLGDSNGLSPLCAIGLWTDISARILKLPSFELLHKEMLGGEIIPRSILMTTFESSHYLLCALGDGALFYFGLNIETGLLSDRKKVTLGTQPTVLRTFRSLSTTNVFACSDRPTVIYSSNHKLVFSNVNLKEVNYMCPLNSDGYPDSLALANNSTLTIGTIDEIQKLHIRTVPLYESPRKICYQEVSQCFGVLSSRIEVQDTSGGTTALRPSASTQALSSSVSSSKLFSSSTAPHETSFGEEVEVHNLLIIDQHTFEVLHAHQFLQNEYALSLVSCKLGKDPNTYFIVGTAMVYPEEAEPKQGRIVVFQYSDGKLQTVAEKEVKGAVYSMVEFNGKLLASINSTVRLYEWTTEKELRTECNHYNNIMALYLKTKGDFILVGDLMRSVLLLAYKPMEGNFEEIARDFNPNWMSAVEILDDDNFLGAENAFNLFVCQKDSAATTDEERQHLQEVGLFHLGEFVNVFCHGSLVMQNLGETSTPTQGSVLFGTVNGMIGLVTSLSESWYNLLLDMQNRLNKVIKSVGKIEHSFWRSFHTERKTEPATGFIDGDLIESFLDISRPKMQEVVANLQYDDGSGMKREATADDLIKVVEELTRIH

Turning to `CC(C)(C)OC(=O)N1CCN(c2ccc(CN3CCCC[C@@H]3COc3ccc4c(c3)CN(C3CCC(=O)NC3=O)C4=O)cn2)CC1` (stereo partly drawn) [Compound I-189, Tert-butyl 4-(5-(((2R)-2-(((2-(2,6-dioxopiperidin-3-yl)-1-oxoisoindolin-5-yl)oxy)methyl)piperidin-1-yl)methyl)pyridin-2-yl)piperazine-1-carboxylate], the Dmax worked out at 73.2%, the remaining activity at up to 25 µM is 26.8% and the DC50 turned out to be 4.3 nM.

Take `CCN1CCN(c2ccc(CN3CCCC[C@@H]3COc3ccc4c(c3)CN(C3CCC(=O)NC3=O)C4=O)cn2)CC1` (stereo partly drawn) [Compound I-191, 3-(5-(((R)-1-((6-(4-ethylpiperazin-1-yl)pyridin-3-yl)methyl)piperidin-2-yl)methoxy)-1-oxoisoindolin-2-yl)piperidine-2,6-dione]: the Dmax turned out to be 67.2%, the remaining activity at up to 25 µM came to 32.9% and the DC50 came out at 150 nM.

As to `COc1cc(CN2CCCC[C@@H]2COc2ccc3c(c2)CN(C2CCC(=O)NC2=O)C3=O)ccc1C#N` (stereo partly drawn) [Compound I-192], the Dmax was 62.2%, the remaining activity at up to 25 µM was found to be 37.8% and the DC50 was 25 nM.

Take `O=C1CCC(N2Cc3cc(OC[C@H]4CCCCN4Cc4ccc5[nH]cnc5c4)ccc3C2=O)C(=O)N1` (stereo partly drawn) [Compound I-193]: the Dmax was found to be 55.7%, the remaining activity at up to 25 µM came to 44.3% and the DC50 worked out at 490 nM.

As for `COc1ccc(CN2CCCC[C@@H]2COc2ccc3c(c2)CN(C2CCC(=O)NC2=O)C3=O)cc1C#N` (stereo partly drawn) [Compound I-196, 5-(((2R)-2-(((2-(2,6-dioxopiperidin-3-yl)-1-oxoisoindolin-5-yl)oxy)methyl)piperidin-1-yl)methyl)-2-methoxybenzonitrile], the Dmax was 78.8%, the remaining activity at up to 25 µM is 21.2% and the DC50 is 4.2 nM.

Consider `O=C1CCC(N2Cc3cc(OC[C@H]4CCCCN4Cc4ccc(C5CCN(CC6CCOCC6)CC5)cc4)ccc3C2=O)C(=O)N1` (stereo partly drawn) [Compound I-197, 3-(1-oxo-5-(((R)-1-(4-(1-((tetrahydro-2H-pyran-4-yl)methyl)piperidin-4-yl)benzyl)piperidin-2-yl)methoxy)isoindolin-2-yl)piperidine-2,6-dione], for which the Dmax turned out to be 51.8%, the remaining activity at up to 25 µM was 48.2% and the DC50 was determined as 56 nM.

On to `O=C1CCC(N2Cc3cc(OC[C@H]4CCCCN4Cc4ccc(C5CCN(CCF)CC5)cc4)ccc3C2=O)C(=O)N1` (stereo partly drawn) [Compound I-198, 3-(5-(((R)-1-(4-(1-(2-fluoroethyl)piperidin-4-yl)benzyl)piperidin-2-yl)methoxy)-1-oxoisoindolin-2-yl)piperidine-2,6-dione], for which the Dmax amounted to 68%, the remaining activity at up to 25 µM was determined as 32% and the DC50 came out at 13 nM.

Take `O=C1CCC(N2Cc3cc(OC[C@H]4CCCCN4Cc4ccc5ocnc5c4)ccc3C2=O)C(=O)N1` (stereo partly drawn) [Compound I-201, 3-(5-(((R)-1-(benzo[d]oxazol-5-ylmethyl)piperidin-2-yl)methoxy)-1-oxoisoindolin-2-yl)piperidine-2,6-dione]: the Dmax stood at 80.5%, the remaining activity at up to 25 µM amounted to 19.5% and the DC50 is 19 nM.

`O=C1CCC(N2Cc3cc(OC[C@H]4CCCCN4CC4COC4)ccc3C2=O)C(=O)N1` (stereo partly drawn) [Compound I-202]: the Dmax turned out to be 58.7%, the remaining activity at up to 25 µM turned out to be 41.3% and the DC50 was 83 nM.

`O=C1CCC(N2Cc3cc(OC[C@H]4CCCCN4Cc4ccc(C5CCN(CC6COC6)CC5)cc4)ccc3C2=O)C(=O)N1` (stereo partly drawn) [Compound I-203, 3-(5-(((R)-1-(4-(1-(oxetan-3-ylmethyl)piperidin-4-yl)benzyl)piperidin-2-yl)methoxy)-1-oxoisoindolin-2-yl)piperidine-2,6-dione]: the Dmax turned out to be 67.5%, the remaining activity at up to 25 µM came to 32.5% and the DC50 is 0.92 nM.

The values are drawn from patent US11566022B2, “3-(5-methoxy-1-oxoisoindolin-2-yl)piperidine-2,6-dione derivatives and uses thereof” (NOVARTIS AG, priority 2019, dated 2023).
